Publication PMC3303745, “Elucidation of the Rotavirus NSP4-Caveolin-1 and -Cholesterol Interactions Using Synthetic Peptides” (Journal of Amino Acids, 2012)
Values joined by “and” are separate entries in the source; they are usually repeats but may differ in a detail not shown here. Equal values may be shown once.

T1: Cy3-N-Cav_(19-40) (caveolin-1 aa 19-40, Cy3-labelled) (not fully specified)
T1 construct: also called Cy3-Cav_(19-40); N-caveolin-1_(19-40)
T1 peptide: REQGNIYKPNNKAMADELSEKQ


Experiments:
RV-infected MDCK cells = assay: Treatment of RV-infected MDCK cells with cholesterol-altering drugs, NSP4 transport by immunofluorescence; format: cell-based; conditions: RV-infected MDCK cells (MOI 2, 12 hpi), treated in triplicate at recommended effective dose; stained with anti-NSP4_150-175 and anti-rabbit-IgG-FITC; compared to untreated infected cells
Method: MDCK cells were infected with RV at a multiplicity of infection (MOI) of 2 and incubated for 12 hpi. The cells were washed and treated in triplicate with the cholesterol altering drugs, fillipin [40], and nystatin [41] exactly as described. Chlorpromazine and nocodazole were utilized as negative and positive controls, respectively. Cells were fixed with methanol : acetone (1 : 1) at −20°C for 10 min, blocked with 5% dry milk for 20 min, incubated with anti-NSP4_150-175 and anti-rabbit-IgG-FITC, and examined under a UV microscope (Zeiss). The cell surface carefully was observed and the presence or absence of fluorescence carefully noted. Comparisons also were made to untreated cells. Primary and secondary antibody controls were negative. To ensure the lack of drug toxicity, a separate set of cells were treated and then stained with trypan blue.

[1] = cited from earlier work
[2] = Circular dichroism, percent α-helix of single peptides; format: physicochemical; conditions: CD, from molar ellipticity at 222 nm, mean ± SD, n = 4; for Percent α-helix, 50% TFE: peptide 15–35 μM in 50% trifluoroethanol; for Percent α-helix, 1 mM SUV: peptide 15–35 μM with 1 mM SUV (55 : 35 : 10, POPC/cholesterol/DOPS); for Percent α-helix, Aqueous Buffer: peptide 15–35 μM, 10 mM potassium phosphate buffer pH 7.4
NSP4_112-140 [3] = target: T2, NSP4_112-140 (Rotavirus A, UniProt P04512); format: physicochemical
NSP4_112-140 [4] = target: T2, NSP4_112-140; format: binding
[5] = target: T1, Cy3-N-Cav_(19-40) (caveolin-1 aa 19-40, …); assay: other fluorescence titration; conditions: both partners purified

Row | Molecule | Results: NSP4 transport to the cell surface (RV-infected MDCK cells) | Percent α-helix, 50% TFE [2] | Percent α-helix, 1 mM SUV [2] | Percent α-helix, Aqueous Buffer [2] | % helical content, Observed, 1 mM SUV (NSP4_112-140 [3]) | % helical content, Observed, 50% TFE (NSP4_112-140 [3]) | % helical content, Observed, Aqueous buffer (NSP4_112-140 [3]) | % helical content, Theoretical, 1 mM SUV (NSP4_112-140 [3]) | % helical content, Theoretical, 50% TFE (NSP4_112-140 [3]) | % helical content, Theoretical, Aqueous buffer (NSP4_112-140 [3]) | also measured
1 | CN(C)CCCN1c2ccccc2Sc2ccc(Cl)cc21 [Chlorpromazine] | Normal NSP4 transport to the PM. |  |  |  |  |  |  |  |  |  | 
2 | CCCCC[C@@H](O)[C@H]1C(=O)O[C@H](C)[C@@H](O)/C=C/C=C/C=C/C=C/C=C(\C)[C@@H](O)C[C@H](O)C[C@H](O)C[C@H](O)C[C@H](O)C[C@H](O)C[C@@H]1O [Fillipin] | Disrupted NSP4 transport |  |  |  |  |  |  |  |  |  | 
3 | COC(=O)Nc1nc2ccc(C(=O)c3cccs3)cc2[nH]1 [Nocodazole] | Disrupted NSP4 transport |  |  |  |  |  |  |  |  |  | 
4 | C[C@@H]1[C@H](O)[C@@H](C)/C=C/C=C/CC/C=C/C=C/C=C/C=C/C(O[C@H]2O[C@H](C)[C@@H](O)[C@H](N)[C@@H]2O)CC2O[C@](O)(CC(O)C(O)CCC(O)CC(O)CC(O)CC(=O)O[C@H]1C)CC(O)C2C(=O)O (stereo partly shown) [Nystatin] | Disrupted NSP4 transport |  |  |  |  |  |  |  |  |  | 
5 | CC(C)CCC[C@@H](C)[C@H]1CC[C@H]2[C@@H]3CC=C4C[C@@H](O)CC[C@]4(C)[C@H]3CC[C@]12C [cholesterol] |  |  |  |  |  |  |  |  |  |  | critical micellar concentration (CMC) [1]: 25 to 40 nM
6 | EAVGKIFSNVRINLQKEI [C-Cav161-178, caveolin-1 C-terminal peptide aa 161–178] |  | 57.4 ± 4.4% | 42.5 ± 10.6% | 43.4 ± 3.8% | 51.9 ± 2.4% | 44.2 ± 10.6 % | 25.0 ± 1.7 % | 49.5 ± 6.2% | 67.8 ± 3.2% | 35.3 ± 1.6% | 
7 | FEDVIAEPEGTHS [Cav68-80, caveolin-1 central region peptide aa 68–80, negative control] |  | 23.1% and 24.4 ± 0.8% | 21.4 ± 2.0% | 23.4 ± 0.9% | 31.3 ± 0.2% | 45.9 ± 2.8% | 24.2 ± 0.3% | 37.5 ± 1.9% | 49.8 ± 1.8% | 23.9 ± 0.7% | 
8 | SGGKYVDSEGHLYTVPIRE [N-Cav2-20, caveolin-1 N-terminal peptide aa 2–20] |  | 16.5 ± 0.9% | 18.5 ± 1.9% | 18.9 ± 2.8% | 34.7 ± 6.0% | 46.3 ± 7.2% | 21.7 ± 0.8% | 37.7 ± 1.9% | 47.6 ± 1.8% | 23.6 ± 2.6% | fold increase in affinity in presence of SUV over absence of membranes (NSP4_112-140 [4]): ~3 fold
9 | MIDKLTTREIEQVELLKRIYDKLTVQTTG (also called NSP4 (aa 112-140)) [NSP4_(112-140) peptide (rotavirus nonstructural protein 4, aa 112-140)] |  |  |  |  |  |  |  |  |  |  | Kd [5]: 40 nM
